Assay results as given in patent US9284567B2, “Method for gene introduction into hordeum plant using agrobacterium, and method for production of transformed plant of hordeum plant” (JAPAN TOBACCO INC., priority 2010, dated 2016).

Columns and labels:
[1] = tested on: barley immature embryos; test: Callus formation from cocultured immature embryos; format: cell-based; details: 0.25 mg/L (1.13 μM) in 1/10 diluted MS coculture medium, no centrifugation or pressurization
[2] = tested on: scutellum of barley immature embryo; test: Gene introduction efficiency (GUS expression index) after coculture with Agrobacterium; format: cell-based, barley (variety: Golden Promise)
Procedure: Immature embryos (size: 1.5 to 2.0 mm) of barley (variety: Golden Promise) from which embryonic axes were removed were aseptically collected and were immersed in 1 mL of sterilized water in a 2-mL microtube. In order to enhance the gene introduction efficiency, the tube containing the immature embryos was heated in a water bath at 43° C. for 5 minutes. An Agrobacterium strain EHA101 having a hygromycin resistance gene (pIG121Hm) (Non-Patent Literature 2) was suspended in an MG/L liquid medium (Non-Patent Literature 28) containing 100 μM acetosyringone and was shake-cultured (180 rpm) at 28° C. overnight (about 20 hours) to prepare an inoculation source. The bacterial concentration was adjusted to an O.D. of 1.0 (660 nm). The inoculation source was added to the thermal-treated immature embryos, and a reduced pressure treatment was performed with a vacuum pump at 500 mbar for 10 minutes. The immature embryos were washed once with a callus induction liquid medium, CIMT (Tingay et al., 1997: Non-Patent Literature 5) not containing any plant growth regulator (hereinafter, antiauxins, cytokinins, and auxins are collectively referred to as plant growth regulators). The immature embryos inoculated with Agrobacterium were transplanted onto a barley coculture medium (1/10 diluted MS inorganic salts and MS vitamins, 10 g/L of glucose, 0.5 g/L of MES, 5 μM AgNO3, and 5 μM CuSO4, pH 5.8; and 8 g/L of agarose) containing 100 μM acetosyringone in such a manner that the scutellum side faces upward. The test was performed using two plant growth regulators in four test groups of the coculture medium. That is, the four test groups are a hormone-free test group not containing any plant growth regulator, a test group of 5 μM TIBA (antiauxin), a test group of 1.13 μM dicamba (auxin), and a test group of 11.3 μM dicamba (auxin).
Immature embryos cultured at 25° C. in the dark for 24 hours were transplanted in a CIMT resting medium (Tingay et al., 1997: Non-Patent Literature 5) containing 0.5 mg/L of 2,4-D and 1.25 mg/L of CuSO4.5H2O. The resting medium was added with 250 mg/L of carbenicillin and 100 mg/T, of cefotaxime for Agrobacterium eradication. […] The expression of the GUS gene in the scutellum region of each immature embryo was evaluated in seven grades: 87.5 (expressed in 75% or more of scutellum), 62.5 (expressed in 50% or more and less than 75% of scutellum), 37.5 (expressed in 25% or more and less than 50% of scutellum), 17.5 (expressed in 10% or more and less than 25% of scutellum), […] (expressed in 1% or more and less than 10% of scutellum), 0.5 (expressed in exceeding 0% and less than 1% of scutellum), and 0 (no expression), and the average value thereof was expressed by a numerical value as the GUS expression index. […]

[3] = tested on: barley immature embryos; test: Hygromycin resistance callus formation after secondary selection; format: cell-based, barley (variety: Golden Promise); details: Example 4, 5 μM TIBA in coculture medium
Procedure: The materials, the method of inoculation with Agrobacterium, the thermal treatment conditions, the coculture step, the centrifugation treatment conditions, and the resting step were the same as those in Example 3. The coculture medium contained an antiauxin: 5 μM TIBA. The scutellum was divided into four sections, and the resting step was further continued for 10 days. After the resting step, each divided scutellum section was further divided into 4 subsections (i.e., one immature embryo was divided into 16 sections). The divided subsections were transplanted in a CIMT selection medium (Tingay et al., 1997: Non-Patent Literature 5) containing 50 mg/L of hygromycin B and 1.25 mg/L of CuSO4.5H2O. The selection medium was added with 250 mg/L of carbenicillin for Agrobacterium eradication. Scutellum subsections were sorted by the original immature embryo and placed on the medium. After the culture at 25° C. in the dark for 2 weeks, only compact calli were selected by removing sponge-like calli containing a large amount of moisture. […] After the culture, hygromycin resistance compact calli propagated on the selection medium were counted. Note that even when a plurality of resistance calli were formed from scutellum subsections derived from a single immature embryo, only one of the resistance calli was counted as a hygromycin resistance callus for each immature embryo.

[4] = tested on: barley immature embryos; test: Transformation efficiency per immature embryo (hygromycin-resistant and GUS-positive regenerated plants); format: cell-based, barley (variety: Golden Promise)
Procedure: The preparation of materials and the inoculation with Agrobacterium were performed as in Example 1. The thermal treatment was also similarly performed.
Test group (1): Immature embryos inoculated with Agrobacterium were placed on the coculture medium described in Harwood et al. (2008: Non-Patent Literature 11) in such a manner that the scutellum faces downward. The coculture was performed at 25° C. in the dark for 3 days. In this test group, the centrifugation treatment was not performed.
Test group (2): Isolated immature embryos were transferred in a 2-mL microtube containing 1 mL of sterilized water and were centrifuged at 25° C. at 15000 rpm (20000×g) for 10 minutes. Subsequently, coculture was performed as in test group (1).
Test group (3): Immature embryos cocultured as in test group (1) were transferred in a 2-mL microtube containing 1 mL of sterilized water and were centrifuged at 25° C. at 15000 rpm (20000×g) for 10 minutes.
Test group (4): Immature embryos inoculated with Agrobacterium were transferred onto a barley coculture medium (1/10 diluted MS inorganic salts and MS vitamins, 10 g/L of glucose, 5 μM TIBA, 0.5 g/L of MES, 5 μM AgNO3, and 5 μM CuSO4, pH 5.8; and 8 g/L of agarose) containing 100 μM acetosyringone in such a manner that the scutellum side faces upward. The immature embryos were cultured at 25° C. in the dark for 24 hours. In this test group, the centrifugation treatment was not performed.
Test group (5): Isolated immature embryos were transferred in a 2-mL microtube containing 1 mL of sterilized water and were centrifuged at 25° C. at 15000 rpm (20000×g) for 10 minutes. Subsequently, coculture was performed as in test group (4).
Test group (6): Immature embryos cocultured as in test group (4) were transferred in a 2-mL microtube containing 1 mL of sterilized water and were centrifuged at 25° C. at 15000 rpm (20000×g) for 10 minutes.
That is, test groups (1), (2), and (3) used a coculture medium containing an auxin, dicamba, and undiluted MS inorganic salts, whereas test groups (4), (5), and (6) used a coculture medium containing an antiauxin, TIBA, and 1/10 diluted MS inorganic salts. Test group (7) used a hormone-free coculture medium containing 1/10 diluted MS inorganic salts.
The immature embryos prepared in test groups (1) to (7) were each transplanted in a CIMT resting medium (Tingay et al., 1997: Non-Patent Literature 5) containing 0.5 mg/L of 2,4-D, but not containing any selective agents. The resting medium was added with 250 mg/L of carbenicillin and 100 mg/L of cefotaxime for Agrobacterium eradication. The immature embryos were cultured at 25° C. in the dark for 7 days and were each divided into four sections. The divided sections were transplanted in a CIMT resting medium (Tingay et al., 1997: Non-Patent Literature 5) containing 0.2 mg/L of 2,4-D and 5 μM CuSO4, but not containing any selective agent. After the resting culture at 25° C. in the dark for 10 days, each four-divided immature embryo section was further divided into three to six subsections (i.e., one immature embryo was divided into 12 to 24 sections). The divided subsections were placed on a CIMT selection medium (Tingay et al., 1997: Non-Patent Literature 5) containing 0.1 mg/L of 2,4-D, 1.5 μM CuSO4, and 75 mg/L of hygromycin and were cultured at 25° C. in the dark for 10 days. Subsequently, subsections having cell clump supposed to be hygromycin resistance were subcultured in a selection medium having the same composition and were cultured at 25° C. in the dark for 10 days.
One hygromycin resistance callus for each divided section was placed on a transition (regeneration preculture) medium (Harwood et al. (2008: Non-Patent Literature 11)) not containing hygromycin and was cultured at 25° C. in the dark for about 2 weeks.

O=C(O)COc1ccc(Cl)cc1Cl [2,4-D, 2,4-dichlorophenoxyacetic acid]
callus formation from cocultured immature embryos [1]: almost no callus was formed | gene introduction efficiency relative to hormone-free coculture medium ([2]; Example 5, FIG. 3, 1.13 μM in 1/10 diluted MS coculture medium): about one-sixth that of the hormone-free coculture medium | gene introduction efficiency (GUS expression index) ([2]; Example 5, FIG. 3, 11.3 μM in 1/10 diluted MS coculture medium): lowest

O=C(O)c1cc(I)cc(I)c1I [TIBA, 2,3,5-triiodobenzoic acid]
frequency of hygromycin resistance callus formation from immature embryos ([3]; with centrifugation treatment after coculture, after secondary selection): 80% | frequency of hygromycin resistance callus formation from immature embryos ([3]; without centrifugation treatment): no callus survived in the selection medium | gene introduction efficiency (GUS expression index) ([2]; Example 1, FIG. 1, 5 μM in 1/10 diluted MS coculture medium, coculture 24 hours, versus plant growth regulator-free group): notably enhanced | transformation efficiency per immature embryo ([4]; test group 4: 5 μM TIBA, 1/10 diluted MS coculture medium, 24 hours, no centrifugation treatment): no transformant was obtained at all | transformation efficiency per immature embryo ([4]; test group 5: 5 μM TIBA, 1/10 diluted MS coculture medium, centrifugation treatment before inoculation with Agrobacterium): 90% | transformation efficiency per immature embryo ([4]; test group 6: 5 μM TIBA, 1/10 diluted MS coculture medium, centrifugation treatment after coculture): 100%

COc1c(Cl)ccc(Cl)c1C(=O)O [dicamba, 3,6-dichloro-2-methoxybenzoic acid]
gene introduction efficiency (GUS expression index) ([2]; Example 1, FIG. 1, 11.3 μM in 1/10 diluted MS coculture medium, coculture 24 hours): lowest | transformation efficiency per immature embryo ([4]; test group 1: conventional coculture medium with dicamba, undiluted MS, coculture 3 days, without centrifugation treatment): 30% | transformation efficiency per immature embryo ([4]; test group 2: conventional coculture medium with dicamba, undiluted MS, centrifugation treatment before inoculation): no transformant was obtained at all | transformation efficiency per immature embryo ([4]; test group 3: conventional coculture medium with dicamba, undiluted MS, centrifugation treatment after coculture): 20%
